Test results taken from patent publication US9980943B2, “Methods of treating muscular dystrophy” (BOARD OF REGENTS OF THE NEVADA SYSTEM OF HIGHER EDUCATION, …, priority 2013, dated 2018).
Where two headings read alike, the source gives them in different places.

System: α7 integrin (LacZ reporter in α7LacZ+/− myoblasts)
Assay: qHTS of the LOPAC library and MLSMR (online screen, α7LacZ+/− myoblasts)
Settings: for activation at 0.307 µM / activation at 1.53 µM / activation at 7.66 µM / activation at 38.3 µM / Emax / EC50: Mus musculus, Myoblast; for activation at 0.307 µM: read-out: Activity at 0.307 uM [%] **; for activation at 1.53 µM: read-out: Activity at 1.530 uM [%] **; for activation at 7.66 µM: read-out: Activity at 7.660 uM [%] **; for activation at 38.3 µM: read-out: Activity at 38.30uM [%] **; for EC50: read-out: Fit LogAC50 (converted)
[1] = 48 h, read-out: Fit Infinite Activity [%]

SMILES	activation at 0.307 µM (48 h) [%]	activation at 1.53 µM (48 h) [%]	activation at 7.66 µM (48 h) [%]	activation at 38.3 µM (48 h) [%]	Emax [1] [%]	EC50 [µM]	Emax (read-out: Max Response [%]) [%]	Score
O=[N+]([O-])c1ccc(N2CCN(c3ccccc3F)CC2)nc1 [Compound 49]	2.3	15.5	102	151	154	5.62		
O=C1SC(Cc2ccccc2)C(=O)N1c1ccccc1 (stereo not drawn) [Compound 50]	7.9	9.4	94.1	176	186	7.94		
Cc1ccc(NCc2nnc(SCC(=O)Nc3nnc(C)s3)n2C)cc1 [Compound 51]	-27.9	-17.6	31.4	249	250	10		
CC1CCCCN1c1ncnc(N)c1[N+](=O)[O-] (stereo not drawn) [Compound 52]	-25.7	1.73	86.4	130	138	4.47		
O=C(Nc1ccc(Cl)cc1N1CCOCC1)C1CCCCC1 [Compound 53]	0	28.1	71.9	119	152	7.08		
CCCn1c(-c2cc(OC)c(OC)c(OC)c2)nc2c1c(=O)[nH]c(=O)n2Cc1ccccc1 [Compound 54]	42	58.6	120	213	262	12.6	213	
CS(=O)(=O)c1ccc(Cl)c(NC(=O)CSc2nncn2-c2ccccc2)c1 [Compound 55]	-24.6	-12.1	3.46	252	253	12.6	252	
CC(C)(CC(=O)O)CC(=O)N1CCCN(c2nccc(C(F)(F)F)n2)CC1 [Compound 56]	24	38.1	86.7	108	111	3.98	108	
COc1cc(CNCc2ccc(C(=O)O)cc2)ccc1OCc1ccc(F)cc1 [Compound 57]	1	14.6	82.2	113	115	4.47	113	
COc1ccc(Nc2ncnc3ccc(C)cc23)cc1 [Compound 58]	-29.7	3.35	49.1	82.8	95.6	3.55	82.8	
COc1ccc(-n2c(C)c(C(C)=O)c3cc(OC(C)=O)ccc32)cc1 [Compound 59]	0	-6.19	48.5	184	185	10	184	
O=C(COC(=O)c1cc2ccccc2oc1=O)Nc1ccc(F)cc1F [Compound 60]	-11	4.45	78.3	115	116	4.47	115	
CCNC(=O)CSc1nc(-c2ccc(F)cc2)cs1 [Compound 61]	-0.123	25.8	82.4	126	136	5.01	126	
CC(C)NC(=O)CN1CCN(C(=O)CCl)CC1 [Compound 62]	-21.4	-18	77.9	155	162	7.08	155	
CS(=O)(=O)N(Cc1ccc(C(=O)NC2CCCC2)cc1)c1ccccc1 [Compound 63]	-3.95	2.24	57.8	196	199	10	196	
C=CCN(CC=C)C(=O)c1ccc(OC2CCN(S(=O)(=O)N(C)C)CC2)cc1 [Compound 64]	-6.4	3.46	95.1	129	130	5.01	129	
O=C(O)CCn1cc(/C=C2/NC(=S)N(c3ccccc3)C2=O)c(-c2ccccc2)n1 [Compound 65]	8.21	2.59	27.2	464	501	20	464	45

SMILES	activation at 0.307 µM (48 h) [%]	activation at 1.53 µM (48 h) [%]	activation at 7.66 µM (48 h) [%]	activation at 38.3 µM (48 h) [%]	Emax [1] [%]	EC50 [µM]	Emax (read-out: Max Response [%]) [%]	Score
CCc1nnc(NC(=O)c2ccc(S(=O)(=O)NCC(C)C)cc2)s1 [Compound 66]	16.2	8.68	32.8	225	227	12.6	225	
CC1CCCCC12NC(=O)N(CC(=O)OCc1cccc(F)c1)C2=O (stereo not drawn) [Compound 67]	6.4	14.5	69.8	142	162	10	142	
CNc1nnc(SCC(=O)c2cc(C)n(C3CC3)c2C)s1 [Compound 68]	-11.8	-22	4.46	220	222	12.6	220	
CCCCNc1nnc(SCC(=O)c2c(N)n(CCC)c(=O)[nH]c2=O)s1 [Compound 69]	0	16.2	62.8	84.4	88.1	3.98	84.4	
C/C(=N\OCC(=O)OC(C)C(=O)Nc1ccc(C(N)=O)cc1)c1ccc2c(c1)OCO2 (stereo not drawn) [Compound 70]	-15.5	4.11	57.2	89.5	96.1	4.47	89.5	
COc1cc(C(C(=O)NC2CCCCC2)N(C(=O)c2snc(C(N)=O)c2N)c2ccc(C)cc2)ccc1O (stereo not drawn) [Compound 71]	0	9.63	58.8	109	122	7.94	109	
CC1CCN(S(=O)(=O)c2ccc(S(=O)(=O)N3CCCC3)cc2)CC1 [Compound 72]	0.91	-2.48	54.5	132	136	8.91	132	
CCC(CC)C(=O)Nc1c(C(=O)N2CCN(c3ccccc3)CC2)oc2ccccc12 [Compound 73]	13.5	18.6	35.7	185	187	12.6	185	
COc1ccc(CCNC(=O)c2nn(C)c3c2CS(=O)(=O)c2ccccc2-3)cc1OC [Compound 74]	-22.8	-9.73	56.7	84.2	86.2	4.47	84.2	
COc1ccc(Nc2ncnc3ccc(Br)cc23)cc1OC [Compound 75]	28.1	40	79.7	95.9	98.4	3.98	95.9	
CCOc1ccc2ccccc2c1C1NC(=O)N(C)C(C)=C1C(=O)OCCOC (stereo not drawn) [Compound 76]	-5.81	5.65	55.1	97	106	6.31	97	
Cc1ccc(NC(=O)NCc2nc3ccccc3n2C)cc1 [Compound 77]	-33.5	-19.7	54.7	85.1	87.1	4.47	85.1	
COc1ccc(C(=O)ONC(=N)c2cccc(C)c2)cc1OC [Compound 78]	10.1	15.5	69.8	148	163	10	148	
CNc1cc([N+](=O)[O-])ccc1OCc1ccccc1 [Compound 79]	1.52	16.2	57.3	80.2	84.8	4.47	80.2	
COC(=O)Cc1c(O)ccn(Cc2ccc3c(c2)OCO3)c1=O [Compound 80]	-4.78	4.56	65.9	146	169	10	146	
O=C(Nc1ccccc1F)c1ccc([N+](=O)[O-])s1 [Compound 81]	1.83	5.12	24.3	215	216	12.6	215	
C/N=C(\S)N1CCC(NC(=O)C(Cc2ccc(F)cc2)NC(C)=O)CC1 (stereo not drawn) [Compound 82]	0	23.1	63.7	84.7	90	3.16	84.7	
